Laboratory results reported in patent US6774131B1, “Remedies for endothelin-induced diseases” (Yamanouchi Pharmaceutical Co., Ltd., priority 2000, dated 2004).
Each block holds one compound with its values, some of them ahead of it.

Assays:
[1] = tested on: PPC-1, hormone-refractory human prostate cancer cells; test: ET-1-induced cell growth (cell number, alamar blue) of PPC-1; format: cell-based; conditions: for Cell growth (%): control = 100
Experimental: PPC-1, hormone-refractory human prostate cancer cells, was used in these experiments(International Journal of Cancer,44,898-903,1989).
Cell number was counted by using a reagent solution of a alamar blue. The cells were seeded at 2×10^4 cells/well in a 24-well plate, after adhesion, the culture media were exchanged to culture media with no FCS-added, and further cultured for another 24 hours. Thereafter, vehicle or ET-1 (10^−11 to 10^−6 M) was added, and cultured for 96 hours. The final volume of the culture medium was 500 μl. Alamar blue of 50 μl was added to the culture, and incubated for 4 hours. After reaction, 100 μl portions collected from the individual wells of the 24-well plate were then transferred to a 96-well plate, and measured the absorbance (at a wave length of 405 nm and a reference wave length of 650 nm) with a plate reader. As a control, the count of a culture to which the vehicle was added was defined 100%, thus the percentage increase of cell number was calculated. The inhibitory effect of the compound was examined by adding the Compound 1 to a final concentration of 10^−9 to 10^−5 M, 30 minutes prior to the addition of ET-1 at 10^−7 M.
At the experiment, the culture medium was exchanged to a culture medium to which ET-1 was contained, 48 hours after stimulation, because the degradation of ET-1 was possible.

[2] = biological target: T1, human ETA receptor (Homo sapiens, UniProt P25101); conditions: Compound 1: WO97/22595; ABT-627: J.Pharmacol.Exp.Ther.,276,473-481,1996; read-out: affinity to human ETA receptor; cited from earlier work
T1 sequence (P25101 21-427): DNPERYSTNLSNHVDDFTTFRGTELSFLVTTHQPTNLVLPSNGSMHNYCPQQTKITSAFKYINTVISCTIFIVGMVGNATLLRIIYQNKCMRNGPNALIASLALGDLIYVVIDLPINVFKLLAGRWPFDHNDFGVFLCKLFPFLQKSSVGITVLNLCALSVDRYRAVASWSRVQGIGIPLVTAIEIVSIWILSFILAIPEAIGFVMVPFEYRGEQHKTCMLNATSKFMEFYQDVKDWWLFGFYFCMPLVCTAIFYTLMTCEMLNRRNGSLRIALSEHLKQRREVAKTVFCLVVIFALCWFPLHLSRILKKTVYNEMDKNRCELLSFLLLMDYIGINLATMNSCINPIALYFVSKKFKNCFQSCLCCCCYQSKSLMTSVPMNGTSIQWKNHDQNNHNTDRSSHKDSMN

[3] = Plasma concentration when orally administered to humans; format: in vivo, human
Experimental: For the purpose of the assessment of the pharmacokinetics, tolerance and safety of Compound 1 when orally administered, the Compound 1 was administered at a single dose of 10 mg to 3 subjects of progressive prostate cancer patients after prostatectomy. So as to assay the plasma concentration of intact Compound 1, blood of 6 ml was collected in a lithium heparin-containing polyethylene tube, prior to administration and at individual times of 30 minutes, one hour, 1.5 hour, 2 hours, 3 hours, 4 hours, 6 hours, 8 hours, 12 hours, 24 hours, 36hours and 48hours after administration, followed by immediate centrifugation (4° C., 10 minutes, 3500 rpm), to recover the plasma. The plasma samples were stored under freezing at −70° C. until the concentration was assayed. The plasma concentration was assayed by the LC-MS/MS method.

[4] = tested on: MC3T3-E1, mouse osteoblast-like cells; test: ET-1-induced increase of intracellular Ca2+ concentration in MC3T3-E1; format: cell-based
Experimental: MC3T3-E1, mouse osteoblast-like cells, was used in these experiments (Journal of Cell Biology,96(1),191-198,1983).
The cell was cultured in a cell disk (of a 13.5-mm diameter) until the cell reached confluency; thereafter, the cell was then cultured in the absence of serum, for about 12 hours or longer and used for this experiment. Fura2-AM (4 μM) was added to the cell in the Hank's balanced salt solution (HBSS) (140 mM NaCl, 4 MM KCl, 1 mM K2HPO4, 1 mM MgCl2, 1 mM CaCl2, 10 mM glucose and 20 mM Hepes, pH-7.4) and incubated at 37° C. for one hour. The cell disk was fixed in a quartz cell placing therein HBSS; the quartz cell was fixed in an intracellular Ca^2+ assay unit (CAF-110). […] Intracellular Ca^2+ concentration was estimated by measuring and detecting the ratio of fluorescence intensities at 500 nm with excitation wave lengths of 340/380 nm and calculating intracellular Ca^2+ concentration using designated formula (J.Biol.Chem.,260,3440-3450,1985). […]
The results are shown in the form of mean±standard error. The significant difference between groups was analyzed by one-way analysis of variance, to calculate the p-values by the Dunnett's multiple range test. […] At each experiment, the EC50 value of ET-1 and the IC50 value of the Compound 1 were calculated by the Logistic regression analysis.

[5] = tested on: prostate cancer patients; test: Clinical study in prostate cancer patients; format: in vivo, human
Experimental: A clinical study was carried out under the following conditions using the patients suffering from prostate cancer.
Subjects: eighteen patients of at least 45 years of age with prostate cancer(stage D2) who are hormone-refractory or have relapsed after anti-androgen therapy.
Strength: 2,10 and 40 mg tablets
Dosage: 2,4,10,20,60,120and 240 mg/day-dose frequency was once daily ot twice daily
Duration of treatment: four weeks (28 days)
Parameters for evalution: Evaluations and measurements were made for the following items before and after the administration.
(1) Prostate specific antigen (PSA)
(2) Born metabolism markers (bone alkaline phosphatase or ratio of deoxypyridinoline/creatinine)
(3) Bone pain (change of visual analogue scale(VAS)/use of analgesics)

[6] = single oral dose 10 mg, prostate cancer patients, plasma
[7] = 2-240 mg/day, four weeks, eighteen patients

- AUC ratio Compound 1 (10 mg)/ABT-627 (20 mg) ([3]; oral, humans, listed as The effective component of the invention): about 18 fold
- AUC [3, 6]: 14700 ng·h/mL
- Cmax [3, 6]: 1000 ng/mL
- T max [3, 6]: 2 h
- T ½ [3, 6]: 13 h
- IC50 ([4]; ET-1 10^−8 M): 10.2 nM
Compound: COc1ccccc1Oc1c(NS(=O)(=O)C=Cc2ccccc2)nc(-c2ncccn2)nc1OC.[K] [Compound 1, N-[6-methoxy-5-(2-methoxyphenoxy)-2-(2-pyrimidinyl)-4-pyrimidinyl]-2-phenylethenesulfoneamide•potassium salt]
- Cell growth (%) ([1]; Compound 1 10^−5 M with ET-1 10^−7 M, n = 7): 98.1%
- Cell growth (%) ([1]; Compound 1 10^−6 M with ET-1 10^−7 M, n = 7): 99.2%
- concentration from which ET-1-induced cell growth was inhibited ([1]; ET-1 10^−7 M): ≥ 10^−6 M
- Ki [2]: 0.697 nM
- effective dose relative to the minimum effective dose of ABT-627 ([5]; 2 mg vs 10 mg): ⅕
- patients with decreased bone specific alkaline phosphatase [5, 7]: eleven (out of eighteen)
- patients with improved pain score VAS [5, 7]: nine (out of eighteen)
- patients with improved prostate cancer marker PSA [5, 7]: ten
- patients with improved ratio of deoxypyridinoline/creatinine [5, 7]: fourteen (out of eighteen)
- patients with reduced analgesics [5, 7]: four (out of eighteen)
- patients with stabilized PSA [5, 7]: two
- dose from which effective ([5]; Test Example 5, prostate cancer patients): ≥ 2 mg
- dose from which effective in improving each observed item ([5]; oral tablets, four weeks): ≥ 2 mg/day

- EC50 ([4]; ET-1 10^−12 to 10^−6 M): 7.39 nM
Compound: ET-1: endothelin; induces pain in humans and experimental animals; used as stimulus of pain, Ca2+ increase and cell growth [reference compound]
- concentration from which ET-1-induced cell growth was observed [1]: ≥ 10^−11 M
- Cell growth (%) ([1]; ET-1 10^−7 M, 96 h, n = 7 (Table 2)): 119.3%
- Cell growth (%) ([1]; ET-1 10^−7 M, Compound 1 0 (Table 3), n = 7): 110.5%
- Cell growth (%) ([1]; ET-1 10^−8 M, 96 h, n = 7): 115.3%
- Cell growth (%) ([1]; ET-1 10^−9 M, 96 h, n = 7): 124.0%
- Cell growth (%) ([1]; ET-1 10^−10 M, 96 h, n = 7): 122.3%
- Cell growth (%) ([1]; ET-1 10^−11 M, 96 h, n = 7): 119.6%
